{"source": "ChEMBL document CHEMBL3112450", "about": "“Synthesis and in vitro antitumor evaluation of primary amine substituted quinazoline linked benzimidazole” (Bioorg Med Chem Lett, 2014)", "assay_type_in_all_cases": "functional", "key": {"[1]": {"experiment": "Cytotoxicity against human OVCAR4 cells assessed as cell growth at 10^-8 M after 48 hrs by SRB assay", "conditions": "OVCAR-4, 48 h, read-out: Activity"}, "BT-549 [2]": {"test_system": "BT-549", "experiment": "Cytotoxicity against human BT549 cells after 48 hrs by SRB assay", "conditions": "BT-549, 48 h"}, "SN12C [3]": {"test_system": "SN12C", "experiment": "Cytotoxicity against human SN12C cells assessed as cell growth at 10^-6 M after 48 hrs by SRB assay", "conditions": "read-out: Activity"}, "RXF 393": {"test_system": "RXF 393", "experiment": "Cytotoxicity against human RXF393 cells assessed as cell growth at 10^-4 M after 48 hrs by SRB assay", "conditions": "RXF 393, 48 h, read-out: Activity"}, "MDA-MB-468": {"test_system": "MDA-MB-468", "experiment": "Cytotoxicity against human MDA-MB-468 cells assessed as cell growth at 10^-7 M after 48 hrs by SRB assay", "conditions": "MDA-MB-468, 48 h, read-out: Activity"}, "SK-MEL-2": {"test_system": "SK-MEL-2", "experiment": "Cytotoxicity against human SK-MEL-2 cells assessed as cell growth at 10^-7 M after 48 hrs by SRB assay", "conditions": "SK-MEL-2, 48 h, read-out: Activity"}, "KM12": {"test_system": "KM12", "experiment": "Cytotoxicity against human KM12 cells after 48 hrs by SRB assay", "conditions": "KM12, 48 h"}, "NCI-H460 [4]": {"test_system": "NCI-H460", "experiment": "Cytotoxicity against human NCI-H460 cells assessed as cell growth at 10^-8 M after 48 hrs by SRB assay", "conditions": "NCI-H460, 48 h, read-out: Activity"}, "HCT-116": {"test_system": "HCT-116", "experiment": "Cytotoxicity against human HCT116 cells assessed as cell growth at 10^-6 M after 48 hrs by SRB assay", "conditions": "HCT-116, 48 h, read-out: Activity"}, "NCI-H460 [5]": {"test_system": "NCI-H460", "experiment": "Cytotoxicity against human NCI-H460 cells assessed as cell growth at 10^-4 M after 48 hrs by SRB assay", "conditions": "NCI-H460, 48 h, read-out: Activity"}, "SF-539": {"test_system": "SF-539", "experiment": "Cytotoxicity against human SF539 cells assessed as cell growth at 10^-8 M after 48 hrs by SRB assay", "conditions": "SF-539, 48 h, read-out: Activity"}, "Malme-3M": {"test_system": "Malme-3M", "experiment": "Cytotoxicity against human MALME-3M cells assessed as cell growth at 10^-7 M after 48 hrs by SRB assay", "conditions": "read-out: Activity"}, "MOLT-4 [6]": {"test_system": "MOLT-4", "experiment": "Cytotoxicity against human MOLT4 cells after 48 hrs by SRB assay", "conditions": "MOLT-4, 48 h"}, "MDA-MB-231": {"test_system": "MDA-MB-231", "experiment": "Cytotoxicity against human MDA-MB-231 cells assessed as cell growth at 10^-6 M after 48 hrs by SRB assay", "conditions": "MDA-MB-231, 48 h, read-out: Activity"}, "SNB-19": {"test_system": "SNB-19", "experiment": "Cytotoxicity against human SNB19 cells assessed as cell growth at 10^-7 M after 48 hrs by SRB assay", "conditions": "SNB-19, 48 h, read-out: Activity"}, "BT-549 [7]": {"test_system": "BT-549", "experiment": "Cytotoxicity against human BT549 cells assessed as cell growth at 10^-6 M after 48 hrs by SRB assay", "conditions": "BT-549, 48 h, read-out: Activity"}, "[8]": {"experiment": "Cytotoxicity against human UO31 cells assessed as cell growth at 10^-7 M after 48 hrs by SRB assay", "conditions": "UO-31, 48 h, read-out: Activity"}, "[9]": {"experiment": "Cytotoxicity against human OVCAR4 cells after 48 hrs by SRB assay", "conditions": "OVCAR-4, 48 h"}, "COLO 205 [10]": {"test_system": "COLO 205", "experiment": "Cytotoxicity against human COLO205 cells assessed as cell growth at 10^-4 M after 48 hrs by SRB assay", "conditions": "COLO 205, 48 h, read-out: Activity"}, "SF-295": {"test_system": "SF-295", "experiment": "Cytotoxicity against human SF295 cells assessed as cell growth at 10^-7 M after 48 hrs by SRB assay", "conditions": "SF-295, 48 h, read-out: Activity"}, "M14": {"test_system": "M14", "experiment": "Cytotoxicity against human M14 cells assessed as cell growth at 10^-4 M after 48 hrs by SRB assay", "conditions": "M14, 48 h, read-out: Activity"}, "[11]": {"experiment": "Cytotoxicity against human Hs578T cells assessed as cell growth at 10^-8 M after 48 hrs by SRB assay", "conditions": "Hs-578T, read-out: Activity"}, "COLO 205 [12]": {"test_system": "COLO 205", "experiment": "Cytotoxicity against human COLO205 cells after 48 hrs by SRB assay", "conditions": "COLO 205, 48 h"}, "T47D": {"test_system": "T47D", "experiment": "Cytotoxicity against human T47D cells after 48 hrs by SRB assay"}, "OVCAR-8": {"test_system": "OVCAR-8", "experiment": "Cytotoxicity against human OVCAR8 cells assessed as cell growth at 10^-7 M after 48 hrs by SRB assay", "conditions": "OVCAR-8, 48 h, read-out: Activity"}, "HT-29 [13]": {"test_system": "HT-29", "experiment": "Cytotoxicity against human HT-29 cells assessed as cell growth at 10^-4 M after 48 hrs by SRB assay", "conditions": "HT-29, 48 h, read-out: Activity"}, "NCI-H522": {"test_system": "NCI-H522", "experiment": "Cytotoxicity against human NCI-H522 cells assessed as cell growth at 10^-7 M after 48 hrs by SRB assay", "conditions": "NCI-H522, 48 h, read-out: Activity"}, "SN12C [14]": {"test_system": "SN12C", "experiment": "Cytotoxicity against human SN12C cells assessed as cell growth at 10^-8 M after 48 hrs by SRB assay", "conditions": "read-out: Activity"}, "HOP-92": {"test_system": "HOP-92", "experiment": "Cytotoxicity against human HOP92 cells assessed as cell growth at 10^-7 M after 48 hrs by SRB assay", "conditions": "HOP-92, 48 h, read-out: Activity"}, "MOLT-4 [15]": {"test_system": "MOLT-4", "experiment": "Cytotoxicity against human MOLT4 cells assessed as cell growth at 10^-8 M after 48 hrs by SRB assay", "conditions": "MOLT-4, 48 h, read-out: Activity"}, "SK-OV-3": {"test_system": "SK-OV-3", "experiment": "Cytotoxicity against human SKOV3 cells assessed as cell growth at 10^-4 M after 48 hrs by SRB assay", "conditions": "SK-OV-3, 48 h, read-out: Activity"}, "K562": {"test_system": "K562", "experiment": "Cytotoxicity against human K562 cells assessed as cell growth at 10^-4 M after 48 hrs by SRB assay", "conditions": "K562, 48 h, read-out: Activity"}, "HT-29 [16]": {"test_system": "HT-29", "experiment": "Cytotoxicity against human HT-29 cells after 48 hrs by SRB assay", "conditions": "HT-29, 48 h"}, "RPMI-8226 [17]": {"test_system": "RPMI-8226", "experiment": "Cytotoxicity against human RPMI8226 cells assessed as cell growth at 10^-6 M after 48 hrs by SRB assay", "conditions": "RPMI-8226, 48 h, read-out: Activity"}, "NCI-H322M": {"test_system": "NCI-H322M", "experiment": "Cytotoxicity against human NCI-H322M cells assessed as cell growth at 10^-4 M after 48 hrs by SRB assay", "conditions": "read-out: Activity"}, "RPMI-8226 [18]": {"test_system": "RPMI-8226", "experiment": "Cytotoxicity against human RPMI8226 cells after 48 hrs by SRB assay", "conditions": "RPMI-8226, 48 h"}, "NCI-H23": {"test_system": "NCI-H23", "experiment": "Cytotoxicity against human NCI-H23 cells after 48 hrs by SRB assay", "conditions": "NCI-H23, 48 h"}, "TK-10": {"test_system": "TK-10", "experiment": "Cytotoxicity against human TK10 cells after 48 hrs by SRB assay", "conditions": "TK-10, 48 h"}}, "data": [{"smiles": "C=CCn1c(C)nc2ccc(Nc3nc(Nc4ccc5nc(C)n(CC=C)c5c4)c4ccccc4n3)cc21", "values": [{"measurement": "growth at 0.01 µM", "setting": "[1]", "value": 99, "unit": "%"}, {"measurement": "GI50", "setting": "BT-549 [2]", "value": 1.62, "unit": "µM"}, {"measurement": "TGI", "setting": "BT-549 [2]", "value": 3.16, "unit": "µM"}, {"measurement": "growth at 1 µM", "setting": "SN12C [3]", "value": 90, "unit": "%"}, {"measurement": "growth at 100 µM", "setting": "RXF 393", "value": -31, "unit": "%"}, {"measurement": "growth at 0.1 µM", "setting": "MDA-MB-468", "value": 92, "unit": "%"}, {"measurement": "growth at 0.1 µM", "setting": "SK-MEL-2", "value": 99, "unit": "%"}, {"measurement": "GI50", "setting": "KM12", "value": 1.64, "unit": "µM"}, {"measurement": "TGI", "setting": "KM12", "value": 3.08, "unit": "µM"}, {"measurement": "growth at 0.01 µM", "setting": "NCI-H460 [4]", "value": 102, "unit": "%"}, {"measurement": "growth at 1 µM", "setting": "HCT-116", "value": 74, "unit": "%"}, {"measurement": "growth at 100 µM", "setting": "NCI-H460 [5]", "value": -28, "unit": "%"}, {"measurement": "growth at 0.01 µM", "setting": "SF-539", "value": 96, "unit": "%"}, {"measurement": "growth at 0.1 µM", "setting": "Malme-3M", "value": 92, "unit": "%"}, {"measurement": "GI50", "setting": "MOLT-4 [6]", "value": 1.67, "unit": "µM"}, {"measurement": "LC50", "setting": "MOLT-4 [6]", "value": "> 100", "unit": "µM"}, {"measurement": "growth at 1 µM", "setting": "MDA-MB-231", "value": 72, "unit": "%"}, {"measurement": "growth at 0.1 µM", "setting": "SNB-19", "value": 92, "unit": "%"}, {"measurement": "growth at 1 µM", "setting": "BT-549 [7]", "value": 86, "unit": "%"}, {"measurement": "growth at 0.1 µM", "setting": "[8]", "value": 80, "unit": "%"}, {"measurement": "GI50", "setting": "[9]", "value": 1.53, "unit": "µM"}, {"measurement": "TGI", "setting": "[9]", "value": 2.87, "unit": "µM"}, {"measurement": "growth at 100 µM", "setting": "COLO 205 [10]", "value": -18, "unit": "%"}, {"measurement": "growth at 0.1 µM", "setting": "SF-295", "value": 98, "unit": "%"}, {"measurement": "growth at 100 µM", "setting": "M14", "value": -7, "unit": "%"}, {"measurement": "growth at 0.01 µM", "setting": "[11]", "value": 95, "unit": "%"}, {"measurement": "GI50", "setting": "COLO 205 [12]", "value": 1.43, "unit": "µM"}, {"measurement": "TGI", "setting": "COLO 205 [12]", "value": 2.74, "unit": "µM"}, {"measurement": "GI50", "setting": "T47D", "value": 1.54, "unit": "µM"}, {"measurement": "TGI", "setting": "T47D", "value": 3.18, "unit": "µM"}, {"measurement": "growth at 0.1 µM", "setting": "OVCAR-8", "value": 102, "unit": "%"}, {"measurement": "growth at 100 µM", "setting": "HT-29 [13]", "value": -16, "unit": "%"}, {"measurement": "growth at 0.1 µM", "setting": "NCI-H522", "value": 91, "unit": "%"}, {"measurement": "growth at 0.01 µM", "setting": "SN12C [14]", "value": 96, "unit": "%"}, {"measurement": "growth at 0.1 µM", "setting": "HOP-92", "value": 86, "unit": "%"}, {"measurement": "growth at 0.01 µM", "setting": "MOLT-4 [15]", "value": 101, "unit": "%"}, {"measurement": "growth at 100 µM", "setting": "SK-OV-3", "value": -54, "unit": "%"}, {"measurement": "growth at 100 µM", "setting": "K562", "value": 1, "unit": "%"}, {"measurement": "GI50", "setting": "HT-29 [16]", "value": 1.85, "unit": "µM"}, {"measurement": "TGI", "setting": "HT-29 [16]", "value": 3.39, "unit": "µM"}, {"measurement": "growth at 1 µM", "setting": "RPMI-8226 [17]", "value": 83, "unit": "%"}, {"measurement": "growth at 100 µM", "setting": "NCI-H322M", "value": -58, "unit": "%"}, {"measurement": "GI50", "setting": "RPMI-8226 [18]", "value": 1.87, "unit": "µM"}, {"measurement": "LC50", "setting": "RPMI-8226 [18]", "value": "> 100", "unit": "µM"}, {"measurement": "GI50", "setting": "NCI-H23", "value": 1.72, "unit": "µM"}, {"measurement": "TGI", "setting": "NCI-H23", "value": 3.23, "unit": "µM"}, {"measurement": "GI50", "setting": "TK-10", "value": 2.04, "unit": "µM"}, {"measurement": "TGI", "setting": "TK-10", "value": 3.5, "unit": "µM"}]}]}
